Experimental data reported in patent publication US9296720B2, “Carboxamide-substituted heteroaryl-pyrazoles and the use thereof” (AiCuris GmbH & Co. KG, priority 2011, dated 2016).
Like-named read-outs stand apart in the source and are kept apart here.

Key:
Format in all cases: cell-based
HIV-1NL4-3 K103N-Y181C = experiment: Luminescence reduction assay, MT4 cells infected with HIV-1NL4-3 luciferase reporter virus, RT mutant K103N-Y181C
From the text: (§1) For this assay, HIV-1NL4-3 reporter viruses are used, which carry the luciferase164 gene (lu164) instead of the nef gene. The viruses are generated by transfection of 293T cells with the corresponding proviral pNL4-3 plasmid (Lipofectamine Reagent, Invitrogen, Karlsruhe, Germany). Starting from the proviral plasmid-DNA, viruses with defined resistance mutations in the reverse transcriptase gene are produced with the “QuikChange II XL Site-Directed Mutagenesis Kit” (Stratagene, Cedar Creek, Tex., USA). Among other things, the following mutations are generated: A98G, A98G-K103N-V108I, A98S, F227C, F227L, G190A, G190S, K101E, K101Q-K103N, K103N, K103N-F227L, K103N-G190A, K103N-G190S, K103N-M230L, K103N-N348I, K103N-P225H, K103N-V108I, K103N-V108I-P225H, K103N-V179F-Y181C, K103N-Y181C, K103N-Y181C-G190A, L100I, L100I-K103N, L100I-K103N-V179I-Y181C, L100I-K103N-Y181C, L234I, N348I, P225H, P236L, V106A, V106A-E138K, V106A-F227C, V106A-F227L, V106I, V106I-Y188L, V106M, V108I, V179F-Y181C, V179I, V179I-Y181C, Y181C, Y181C-G190A, Y181C-M230L, Y181I, Y188L. MT4 cells infected with these reporter viruses (NIH AIDS Research and Reference Reagent Program) secrete luciferase into the medium, which makes possible the luminometric quantification of the virus replication.
(§2) For the batch of a 96-well MTP, 3 million MT4 cells are pelletized, suspended in 1 ml of RPMI 1640 medium without phenol red (Invitrogen, Karlsruhe, Germany)/10% FCS/2 mmol of L-glutamine/1% Pen/Strep (Invitrogen, Karlsruhe, Germany), and incubated together with a suitable amount of the corresponding HIV-1NL4-3 reporter virus for 2 hours at 37° C. (pellet infection). Non-adsorbed viruses are then washed out with PBS, the infected cells are pelletized again, and suspended in 8 ml of RPM 11640 medium without phenol red/2% or 10% FCS/2 mmol of L-glutamine/1% Pen/Strep. Therefrom, 80 μl per well is pipetted into a white 96-well MTP in 20 μl of test substance in a suitable dilution. In order to avoid boundary effects, the edge wells of the MTP are not used for substance dilutions. The second vertical row of the MTP contains only infected cells (virus control), and the eleventh vertical row contains only non-infected cells (cell control) in each case in RPMI 1640 medium without phenol red/2% or 10% FCS/2 mmol of L-glutamine/1% Pen/Strep. The other wells of the MTP contain the compounds according to the invention in different concentrations starting from the third vertical row, from which dilution of the test substances is carried out 3^7 times in three steps up to the tenth vertical row. The test substances are dissolved in DMSO, whereby the DMSO final concentration in the test batch is ultimately 1%. The test batches are incubated for 5 days at 37° C./5% CO2, and are luminometrically evaluated after the addition of 15 μl of Lu164-buffer (65 mmol of NaCl, 300 mmol of MES, pH 5.8, 5 mmol of glutathione and 1:200 coelenterazine (5 mg/ml in 30 μM of glutathione/DMSO) (P.J.K. GmbH, Kleinblittersdorf, Germany)). In the virus control, the resulting values are in the range of 1 million RLUs (relative light units), and in the cell control, the resulting values are 300 to 400 RLUs. The EC50 values of the test substances are determined as the concentration of the treated infected cells, in which the virus replication measured in RLUs is 50% of the untreated infected cells.

HIV-1NL4-3 Wild Type = experiment: Luminescence reduction assay, MT4 cells infected with HIV-1NL4-3 luciferase reporter virus, wild type; settings: 2% FCS
From the text: as §1, §2

HIV-1LAI Wild Type = experiment: AlamarBlue viability assay, HIV-1LAI-infected MT4 cells; settings: 10% FCS
Description: For the batch of a 96-well MTP, 3 million PBLs are pelletized, suspended in 1 ml of RPMI 1640 medium/10% FCS/2 mmol of L-glutamine/1% Pen/Strep, and incubated together with a suitable amount of HIV-1LA1 (NIH AIDS Research & Reference Reagent Program, Germantown, USA) for 2 hours at 37° C. (pellet infection). Non-adsorbed viruses are then washed out with PBS, the infected cells are pelletized again, and suspended in 18 ml of RPMI 1640 medium/10% FCS/2 mmol of L-glutamine/1% Pen/Strep/interleukin-2 (40 U/ml). Therefrom, 180 μl per well is pipetted into a white 96-well MTP in 20 μl of test substance in a suitable dilution. As an alternative, after preparation of the substance dilutions, the HIV is added by pipetting in the MTP together with the cells and is no longer washed out (supernatant infection). In order to avoid boundary effects, the edge wells of the MTP are not used for substance dilutions. The second vertical row of the MTP contains only infected cells (virus control), and the eleventh vertical row contains only non-infected cells (cell control) in each case in RPMI 1640 medium/10% FCS/2 mmol of L-glutamine/1% Pen/Strep/interleukin-2 (40 U/ml). The other wells of the MTP contain the compounds according to the invention in different concentrations starting from the third vertical row, from which dilution of the test substances is carried out 3^7 times in three steps up to the tenth vertical row. The test substances are dissolved in DMSO, whereby the DMSO final concentration in the test batch is ultimately 1%. The test batches are incubated at 37° C./5% CO2. After 5 and 7 days, in each case 50 μl of cell-free supernatant is drawn off from each well in order to determine the amount of p24 contained by means of p24 ELISA (HIV-1 p24^CA Antigen Capture Assay Kit, NCI-Frederick Cancer Research and Development Center, Frederick, USA). From the resulting values of the photometric analysis (450/620 nm), the EC50 values of the test substances are determined as the concentration of the treated infected cells, in which the amount of p24 is 50% of the untreated infected cells.
As an alternative, MT4 cells are used for testing test substances instead of PBLs. HIV-1LA1-infected MT4 cells (MOI 0.01, supernatant infection) are incubated according to the above-described pattern in RPMI 1640 medium with 2% or 10% FCS/2 mmol of L-glutamine/1% Pen/Strep in the presence of test substances for 5 days at 37° C./5% CO2 (20 μl of substance dilution and 80 μl of cells/virus per well). Then, 10 μl of AlamarBlue (Invitrogen, Karlsruhe, Germany) is added to each well, and MTPs are incubated for 3 hours at 37° C., before the fluorimetric analysis is done (544/590 nm). The resulting values are approximately 30,000 in the case of untreated, non-infected cells, and approximately 6,000 in the case of untreated infected cells. In the low concentration range, the EC50 values of the test substances are determined as the concentration of the treated infected cells, in which the fluorescence is 50% of the untreated non-infected cells (in each case relative to the values of the untreated infected cells). In addition, in the high concentration range, the CC50 values of the test substances are determined as the concentration of the treated infected cells, in which the fluorescence is 50% of the untreated, non-infected cells (in each case relative to the values of the untreated infected cells).

[1] = Human immunodeficiency virus 1, MT4, read-out: EC50 (μM) MT4 Cells HIV-1NL4-3 K103N-Y181C 2% FCS, MT4 cells, HIV-1NL4-3 K103N-Y181C, 2% FCS
[2] = Human immunodeficiency virus 1, MT4, MT4 cells

| SMILES | EC50 (HIV-1NL4-3 K103N-Y181C; [1]) [µM] | EC50 (HIV-1NL4-3 Wild Type; [2]) [µM] | EC50 (HIV-1LAI Wild Type; [2]) [µM] | EC50 (HIV-1NL4-3 K103N-Y181C; read-out: EC50 (μM) MT4 Cells HIV-1NL4-3 K103N-Y181C 2% FCS, MT4 cells, HIV-1NL4-3 K103N-Y181C, 2% FCS) [µM] | EC50 (HIV-1NL4-3 Wild Type; MT4 cells) [µM] | EC50 (HIV-1LAI Wild Type; MT4 cells) [µM] |
| --- | --- | --- | --- | --- | --- | --- |
| O=C(c1cc(-c2cc(F)cc(OC(F)(F)F)c2)n(-c2cccnc2)n1)N1CCSC1 [Example 59, {5-[3-Fluoro-5-(trifluoromethoxy)phenyl]-1-(pyridin-3-yl)-1H-pyrazol-3-yl}(1,3-thiazolidin-3-yl)methanone] | 1.11 | 0.256 | 2.78 |  |  |  |
| COc1cc(OC(F)(F)F)cc(-c2cc(C(=O)N3CNC(=O)C3)nn2-c2ccnc(Cl)c2)c1 [Example 86, 1-({1-(2-Chloropyridin-4-yl)-5-[3-methoxy-5-(trifluoromethoxy)phenyl]-1H-pyrazol-3-yl}carbonyl)imidazolidin-4-one] | 0.011 | 0.014 | 0.065 |  |  |  |
| Cc1ccc(-n2nc(C(=O)N3CNC(=O)C3)cc2-c2cc(F)cc(Cl)c2)cn1 [Example 11, 1-{[5-(3-Chloro-5-fluorophenyl)-1-(6-methylpyridin-3-yl)-1H-pyrazol-3-yl]carbonyl}imidazolidin-4-one] | 0.061 | 0.007 | 0.057 |  |  |  |
| O=C(c1cc(-c2cc(Cl)cc(OC(F)(F)F)c2)n(-c2cccnc2)n1)N1CCS(=O)(=O)C1 [Example 79, {5-[3-Chloro-5-(trifluoromethoxy)phenyl]-1-(pyridin-3-yl)-1H-pyrazol-3-yl}(1,1-dioxido-1,3-thiazolidin-3-yl)methanone] | 0.125 | 0.038 | 0.244 |  |  |  |
| O=C1CN(C(=O)c2cc(-c3cc(F)cc(Cl)c3)n(-c3ccnc(C(F)(F)F)c3)n2)CN1 [Example 16, 1-({5-(3-Chloro-5-fluorophenyl)-1-[2-(trifluoromethyl)pyridin-4-yl]-1H-pyrazol-3-yl}carbonyl)imidazolidin-4-one] | 0.339 | 0.055 | 0.49 |  |  |  |
| O=C(c1cc(-c2cc(Cl)cc(OC(F)(F)F)c2)n(-c2cccnc2)n1)N1CC[S+]([O-])C1 (racemic) [Example 78, {5-[3-Chloro-5-(trifluoromethoxy)phenyl]-1-(pyridin-3-yl)-1H-pyrazol-3-yl}(1-oxido-1,3-thiazolidin-3-yl)methanone] | 0.277 | 0.078 | 0.367 |  |  |  |
| O=C1CN(C(=O)c2cc(-c3cncc(C(F)(F)F)c3)n(-c3ccc(F)c(Cl)c3)n2)CN1 [Example 106, 1-({1-(3-Chloro-4-fluorophenyl)-5-[5-(trifluoromethyl)pyridin-3-yl]-1H-pyrazol-3-yl}carbonyl)imidazolidin-4-one] | 0.12 | 0.082 | 0.084 |  |  |  |
| Cc1ccc(-n2nc(C(=O)N3CNC(=O)C3)cc2-c2cc(Br)cc(OC(F)(F)F)c2)cn1 [Example 46, 1-({5-[3-Bromo-5-(trifluoromethoxy)phenyl]-1-(6-methylpyridin-3-yl)-1H-pyrazol-3-yl}carbonyl)imidazolidin-4-one] | 0.007 | 0.007 | 0.097 |  |  |  |
| O=C(c1cc(-c2cc(F)cc(Cl)c2)n(-c2cccnc2)n1)N1CC[S+]([O-])C1 (racemic) [Example 6-2, [5-(3-Chloro-5-fluorophenyl)-1-(pyridin-3-yl)-1H-pyrazol-3-yl](1-oxido-1,3-thiazolidin-3-yl)methanone] |  |  |  | 0.986 | 0.007 | 0.112 |
| O=C(c1cc(-c2cc(F)cc(OCC(F)(F)F)c2)n(-c2cccnc2)n1)N1CCS(=O)(=O)C1 [Example 74, (1,1-Dioxido-1,3-thiazolidin-3-yl) {5-[3-fluoro-5-(2,2,2-trifluoroethoxy)phenyl]-1-(pyridin-3-yl)-1H-pyrazol-3-yl}methanone] | 0.302 | 0.004 | 0.066 |  |  |  |
| COc1cc(OC(F)(F)F)cc(-c2cc(C(=O)N3CCNC(=O)C3)nn2-c2cccnc2)c1 [Example 85, 4-({5-[3-Methoxy-5-(trifluoromethoxy)phenyl]-1-(pyridin-3-yl)-1H-pyrazol-3-yl}carbonyl)piperazin-2-one] | 0.123 | 0.05 | 0.302 |  |  |  |
| O=C(c1cc(-c2cc(F)cc(Cl)c2)n(-c2ccnc(C(F)(F)F)c2)n1)N1CC[S+]([O-])C1 (stereo not drawn) [Example 19, {5-(3-Chloro-5-fluorophenyl)-1-[2-(trifluoromethyl)pyridin-4-yl]-1H-pyrazol-3-yl}(1-oxido-1,3-thiazolidin-3-yl)methanone] | > 3.3 | 0.152 | 2.5 |  |  |  |
| COc1cc(Br)cc(-c2cc(C(=O)N3CNC(=O)C3)nn2-c2ccnc(Cl)c2)c1 [Example 96, 1-{[5-(3-Bromo-5-methoxyphenyl)-1-(2-chloropyridin-4-yl)-1H-pyrazol-3-yl]carbonyl}imidazolidin-4-one] | 0.02 | 0.004 | 0.016 |  |  |  |
